Literature values as cited in article PMC2765482 (Journal of medicinal chemistry, 2009).
Marks after values point to notes of the source that are not given here.

Key:
[1] = versus vancomycin; ref [11]
[2] = test system: N,N′-Ac2-L-Lys-D-Ala-D-Ala (2); conditions: ligand N,N′-Ac2-L-Lys-D-Ala-D-Ala; ref [4]
[3] = test system: Enterococcus faecalis strain BM4166 (vancomycin-resistant, VanA); conditions: ref [18b]
[4] = test system: N,N′-Ac2-L-Lys-D-Ala-D-Lac (3); conditions: for Association Constants 3 (Ka): ligand N,N′-Ac2-L-Lys-D-Ala-D-Lac, ref [4]
[5] = test system: Staphylococcus aureus strain ATCC 25923 (vancomycin-sensitive); conditions: vancomycin-sensitive strain ATCC 25923; ref [18b] (text: ref [4],[18])
[6] = test system: Enterocococci bacterial strains, VanA and VanB; conditions: VanA and VanB resistant versus sensitive; ref [1d,k]
[7] = test system: vancomycin-sensitive bacteria and vancomycin-resistant Enterococci (VRE); conditions: against vancomycin-sensitive bacteria and VRE; ref [9]

Row | Substance | enhancement of antimicrobial properties [1] [fold] | Association Constants 2 (Ka) [2] | MIC E. faecalis [3] | Association Constants 3 (Ka) [4] | MIC S. aureus [5] | reduction of affinity for the ligand on D-Ala to D-Lac modification (NH→O) ([4]; D-Ala-D-Lac versus D-Ala-D-Ala ligand, ref [1d,k]) [fold] | drop in antimicrobial activity [6] [fold] | more active than vancomycin [7]
1 | N-demethylvancomycin | 2 |  |  |  |  |  |  | 
2 | vancomycin aglycon [Compound 5] |  | 1.7 ^f ×10^5 M^−1 | 640 ^e µg/mL | 1.2 ^f ×10^2 M^−1 | 0.625 ^e µg/mL |  |  | 
3 | Vancomycin [Compound 1] |  | 2.0 ^f ×10^5 M^−1 | 2000 ^e µg/mL | 1.8 ^f ×10^2 M^−1 | 1.25 ^e µg/mL | 1000 | 1000 | 
4 | Chlorobiphenyl vancomycin |  |  |  |  |  |  |  | ca. 100 fold
